{"source": "patent US20130005824A1", "about": "“TREATMENT OF ISCHEMIC TISSUE” (The Research Foundation of State University of New York, priority 2009, published 2013)", "key": {"rat comb burn model": {"tested_on": "rat comb burn model", "test": "Burn injury progression in the rat hot comb burn model, intravenous curcumin", "type": "in vivo", "details": "for interspaces that progressed to full thickness necrosis, histologic analysis: day 7, control 67%", "method": "In this study, we determined the effects of curcumin on burn progression in the rat hot comb model. […] Pure curcumin (99.9% as determined by HPLC and mass spectroscopy analysis) produced under GMP was acquired from ChromaDex, Inc for the studies described below.\nAnimals were randomized to receive one of six intravenous doses of curcumin (0.3, 1.0, 3.0, 10, 30, or 100 μg/kg) in 1 ml of phosphate buffered saline (PBS) or PBS alone (buffer control) administered via the tail vein at 1 and 24 hours after injury. […] Full-thickness biopsies from the interspaces 7 days after injury were evaluated for evidence of necrosis after H&E staining. The percentages of interspaces that progressed to necrosis were compared with chi-squared (χ2) tests. At the seventh day, the number of interspaces that processed to full thickness necrosis was 67% for control, 58, 53, 37, 63, 53, and 26% for 0.1, 0.3, 1, 3, 10, 30 and 100 μg/kg curcumin respectively as determined by histologic analysis. Similar results were obtained for the macroscopic evaluation at day 2, 5, and 7. […] The same experiment was repeated a second time and gave essentially the same results."}, "[1]": {"tested_on": "hamster cheek pouch arterioles (arcade arteriole and terminal arteriolar feed)", "test": "Microvascular response (arteriolar diameter change) to locally applied curcumin in hamster cheek pouch tissue, intravital microscopy", "type": "in vivo", "details": "for EC50: Mesocricetus auratus"}, "[2]": {"details": "curcumin alone, similar for arcade and feed"}}, "note": "Read-outs that look alike come from different tables or passages of the source.", "data": [{"smiles": "COc1cc(/C=C/C(=O)CC(=O)/C=C/c2ccc(O)c(OC)c2)ccc1O", "note": "[curcumin, (E,E)-1,7-bis (4-hydroxy-3-methoxyphenyl)-1,6-heptadiene-3,5,-dione]", "values": [{"measurement": "progression to necrosis compared to control", "setting": "rat comb burn model; 3 μg/kg and 100 μg/kg i.v., p<0.01, macroscopic evaluation and histologic analysis", "value": "significantly less progression to necrosis"}, {"measurement": "interspaces that progressed to full thickness necrosis, histologic analysis", "setting": "rat comb burn model; fifth value listed (30 μg/kg by method)", "value": 53, "unit": "%"}, {"measurement": "interspaces that progressed to full thickness necrosis, histologic analysis", "setting": "rat comb burn model; fourth value listed (10 μg/kg by method)", "value": 63, "unit": "%"}, {"measurement": "interspaces that progressed to full thickness necrosis, histologic analysis", "setting": "rat comb burn model; i.v. at 1 and 24 h after injury, first value listed (0.3 μg/kg by method, 0.1 μg/kg by the sentence)", "value": 58, "unit": "%"}, {"measurement": "interspaces that progressed to full thickness necrosis, histologic analysis", "setting": "rat comb burn model; last value listed (100 μg/kg)", "value": 26, "unit": "%"}, {"measurement": "interspaces that progressed to full thickness necrosis, histologic analysis", "setting": "rat comb burn model; second value listed (1 μg/kg by method)", "value": 53, "unit": "%"}, {"measurement": "interspaces that progressed to full thickness necrosis, histologic analysis", "setting": "rat comb burn model; third value listed (3 μg/kg by method)", "value": 37, "unit": "%"}, {"measurement": "curcumin-induced dilation remaining with LNNA", "setting": "[1]; 10^−4M LNNA, curcumin 10^−10 though 10^−7 M", "value": "significant curcumin-induced dilation remained"}, {"measurement": "curcumin-induced dilation remaining with LNNA", "setting": "[1]; 10^−5M LNNA, 10^−12 to 10^−10 M curcumin", "value": "a significant dilation remained"}, {"measurement": "curcumin-induced dilation with LNNA", "setting": "[1]; 10^−5M LNNA, terminal feed arterioles, similar pattern in arcade", "value": "attenuated"}, {"measurement": "EC50", "setting": "[1]; curcumin alone, micropipette 60 s, similar for arcade and feed, read-out: logEC50 for dilation (converted)", "value": 0.316, "unit": "nM"}, {"measurement": "EC50", "setting": "[1]; curcumin alone, similar for arcade and feed, read-out: logEC50 for constriction (converted)", "value": 3.98, "unit": "nM"}, {"measurement": "EC50", "setting": "[1]; phentolamine 10^−5 M, constrictor component removed, read-out: logEC50, dilation to curcumin with phentolamine (converted)", "value": "0.1 ± 0.004", "unit": "nM"}, {"measurement": "EC50", "setting": "[1]; propranolol 10^−5 M, dilation component removed, read-out: logEC50, constriction to curcumin with propranolol (converted)", "value": 0.01, "unit": "nM"}, {"measurement": "effect of simultaneous PD142893 on the curcumin response", "setting": "[1]; PD142893 (endothelin antagonist) 10^−5 M", "value": "no effect"}, {"measurement": "effect of PD142893 on maximal dilation and constriction to curcumin", "setting": "[1]; PD142893 (endothelin antagonist), no effect on baseline diameters", "value": "diminished the maximal dilation and enhanced the maximal constriction"}, {"measurement": "curcumin-induced dilation with cAMP blockade", "setting": "[1]; Rp-8-br-cAMPS, curcumin 10^−6M, arcade, but not terminal arterioles", "value": "significantly suppressed"}, {"measurement": "curcumin-induced constriction with cAMP blockade", "setting": "[1]; Rp-8-br-cAMPS, curcumin 10^−8M, arcade, but not terminal arterioles", "value": "attenuated"}, {"measurement": "curcumin-induced dilation with cGMP blockade", "setting": "[1]; Rp-8-br-cGMPS, terminal and arcade arterioles", "value": "prevented all curcumin-induced dilation"}, {"measurement": "local response after microvascular preconditioning", "setting": "[1]; after deliberate microvascular preconditioning", "value": "predominantly constriction"}, {"measurement": "effect of simultaneous atropine on the curcumin response", "setting": "[1]; atropine (muscarinic antagonist) 10^−7 M", "value": "no effect"}, {"measurement": "effect of atropine on maximal dilation and constriction to curcumin", "setting": "[1]; atropine (muscarinic antagonist), no effect on baseline diameters", "value": "diminished the maximal dilation and enhanced the maximal constriction"}, {"measurement": "constrictor and dilatory (cGMP and cAMP mediated) responses before and after repeated exposure (potential cytotoxicity)", "setting": "[1]; baseline diameter recovery and tone after repeated 60 second exposures", "value": "unchanged"}, {"measurement": "terminal arteriole diameter, 60 second time-course", "setting": "[1]; curcumin 10^−6M continuously applied", "value": "initial vasodilation at 20 seconds was followed by vasoconstriction that peaked at 60 seconds"}, {"measurement": "terminal arteriole diameter, 60 second time-course", "setting": "[1]; curcumin 10^−10M continuously applied", "value": "sustained dilation"}, {"measurement": "response to curcumin with propranolol and phentolamine together", "setting": "[1]; curcumin 10^−10 M, 10^−8M and 10^−6M, terminal and arcade arterioles", "value": "blocked all response"}, {"measurement": "peak constriction", "setting": "[1]; [2]", "value": "−15±5", "unit": "%"}, {"measurement": "peak dilation", "setting": "[1]; [2]", "value": "+40±8%"}, {"measurement": "peak dilation, terminal versus arcade arterioles", "setting": "[1]; dose-response 10^−13M to 10^−3M, 20 s and 60 s", "value": "significantly greater for terminal arterioles than for arcade arterioles"}, {"measurement": "concentration inducing vasodilation after versus before preconditioning", "setting": "[1]; in vivo studies to date, after preconditioning", "value": "lower concentrations"}, {"measurement": "effect on arteriolar diameter during induced endothelial dysfunction", "setting": "[1]; nitro-arginine added to the tissue bath", "value": "the dilation component was potentiated and constriction was attenuated"}, {"measurement": "peak dilation to curcumin with phentolamine, arcade", "setting": "[1]; phentolamine 10^−5 M, arcade arteriole", "value": "+34±9"}, {"measurement": "peak dilation to curcumin with phentolamine, feed", "setting": "[1]; phentolamine 10^−5 M, terminal feed arteriole", "value": "+65 +10"}, {"measurement": "peak constriction to curcumin with propranolol", "setting": "[1]; propranolol 10^−5 M", "value": "−30 ±7", "unit": "%"}, {"measurement": "constriction response to curcumin with phentolamine", "setting": "[1]; terminal arteriole, phentolamine 10^−5M", "value": "abolished"}, {"measurement": "dilation response to curcumin with propranolol", "setting": "[1]; terminal arteriole, propranolol 10^−5M", "value": "abolished"}]}]}
